Data published in ChEMBL document CHEMBL3286359, “Synthesis and SAR of substituted pyrazolo[1,5-a]quinazolines as dual mGlu(2)/mGlu(3) NAMs” (Bioorg Med Chem Lett, 2014).
pIC50: −log10 of the molar value. The source made the active and inactive calls. The rule behind the calls is not given here.

What was measured:
[1] = target: Metabotropic glutamate receptor 2 (Rattus norvegicus, UniProt P31421); assay: Inhibition of rat mGlu2 receptor transfected in HEK293 cells coexpressing mouse Galpha15 assessed as decrease in glutamate-induced calcium signaling by fluorescence plate reader analysis in presence of glutamate at EC76 concentration; type: functional, cell-based
Plasma [2] = assay: Fraction unbound in rat plasma; type: ADME, cell-free
[3] = target: Metabotropic glutamate receptor 3 (Rattus norvegicus, UniProt P31422); assay: Inhibition of rat mGlu3 receptor transfected in HEK293 cells coexpressing mouse Galpha15 assessed as decrease in glutamate-induced calcium signaling by fluorescence plate reader analysis in presence of glutamate at EC87 concentration; type: functional, cell-based
[4] = target: Metabotropic glutamate receptor 7 (Rattus norvegicus) (UniProt P35400); assay: Activity at rat mGlu7 receptor assessed as glutamate-induced GIRK response at 10 uM
[5] = target: Metabotropic glutamate receptor 8 (Rattus norvegicus) (UniProt P70579); assay: Activity at rat mGlu8 receptor assessed as glutamate-induced GIRK response at 10 uM
[6] = target: Metabotropic glutamate receptor 4 (Rattus norvegicus) (UniProt P31423); assay: Activity at rat mGlu4 receptor assessed as glutamate-induced GIRK response at 10 uM
[7] = target: Metabotropic glutamate receptor 6 (Homo sapiens) (UniProt O15303); assay: Activity at human mGlu6 receptor assessed as glutamate-induced GIRK response at 10 uM
[8] = target: Metabotropic glutamate receptor 5 (Rattus norvegicus) (UniProt P31424); assay: Activity at rat mGlu5 receptor assessed as glutamate-induced calcium signaling at 10 uM by fluorescence plate reader analysis; type: functional
[9] = target: Metabotropic glutamate receptor 2 (Rattus norvegicus) (UniProt P31421); assay: Negative allosteric modulatory activity at rat mGlu2 receptor transfected in HEK293 cells coexpressing mouse Galpha15 assessed as decrease in glutamate-induced calcium signaling by fluorescence plate reader analysis in presence of glutamate at EC76 concentration; type: functional, cell-based
Plasma [10] = assay: Fraction unbound in human plasma; type: ADME, cell-free
[11] = target: Metabotropic glutamate receptor 2 (Rattus norvegicus) (UniProt P31421); assay: Inhibition of rat mGlu2 receptor assessed as decrease in glutamate-induced calcium signaling at 10 uM by fluorescence plate reader analysis; type: functional
[12] = target: Metabotropic glutamate receptor 3 (Rattus norvegicus) (UniProt P31422); conditions: 10 uM
Metabotropic glutamate receptor 3 (Rattus norvegicus), sequence (P31422 23-879 limits assumed): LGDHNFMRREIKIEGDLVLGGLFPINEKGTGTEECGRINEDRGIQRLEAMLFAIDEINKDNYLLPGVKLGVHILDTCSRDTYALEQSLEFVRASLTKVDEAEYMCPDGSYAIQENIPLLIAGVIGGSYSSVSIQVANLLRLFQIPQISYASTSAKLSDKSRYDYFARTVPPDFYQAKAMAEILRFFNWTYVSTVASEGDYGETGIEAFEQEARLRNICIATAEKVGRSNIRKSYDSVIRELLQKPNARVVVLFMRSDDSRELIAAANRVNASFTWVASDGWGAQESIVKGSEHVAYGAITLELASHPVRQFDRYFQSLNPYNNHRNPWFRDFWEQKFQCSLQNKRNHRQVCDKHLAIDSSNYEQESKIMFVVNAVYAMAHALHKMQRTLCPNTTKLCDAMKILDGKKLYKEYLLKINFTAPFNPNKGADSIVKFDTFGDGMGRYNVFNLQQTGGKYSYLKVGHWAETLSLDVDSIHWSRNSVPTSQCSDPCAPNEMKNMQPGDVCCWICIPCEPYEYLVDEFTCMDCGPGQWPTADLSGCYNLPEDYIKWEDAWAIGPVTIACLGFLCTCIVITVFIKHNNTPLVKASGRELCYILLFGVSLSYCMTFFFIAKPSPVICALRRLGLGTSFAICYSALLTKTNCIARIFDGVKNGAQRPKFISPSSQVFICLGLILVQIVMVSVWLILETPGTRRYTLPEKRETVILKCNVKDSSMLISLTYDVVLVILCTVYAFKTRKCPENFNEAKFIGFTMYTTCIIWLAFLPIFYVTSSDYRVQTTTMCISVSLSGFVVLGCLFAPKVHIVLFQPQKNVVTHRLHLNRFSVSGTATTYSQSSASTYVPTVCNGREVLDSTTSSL
Description: Inhibition of rat mGlu3 receptor assessed as decrease in glutamate-induced calcium signaling at 10 uM by fluorescence plate reader analysis

Metabotropic glutamate receptor 2 (Rattus norvegicus), sequence (P31421 19-872 limits assumed): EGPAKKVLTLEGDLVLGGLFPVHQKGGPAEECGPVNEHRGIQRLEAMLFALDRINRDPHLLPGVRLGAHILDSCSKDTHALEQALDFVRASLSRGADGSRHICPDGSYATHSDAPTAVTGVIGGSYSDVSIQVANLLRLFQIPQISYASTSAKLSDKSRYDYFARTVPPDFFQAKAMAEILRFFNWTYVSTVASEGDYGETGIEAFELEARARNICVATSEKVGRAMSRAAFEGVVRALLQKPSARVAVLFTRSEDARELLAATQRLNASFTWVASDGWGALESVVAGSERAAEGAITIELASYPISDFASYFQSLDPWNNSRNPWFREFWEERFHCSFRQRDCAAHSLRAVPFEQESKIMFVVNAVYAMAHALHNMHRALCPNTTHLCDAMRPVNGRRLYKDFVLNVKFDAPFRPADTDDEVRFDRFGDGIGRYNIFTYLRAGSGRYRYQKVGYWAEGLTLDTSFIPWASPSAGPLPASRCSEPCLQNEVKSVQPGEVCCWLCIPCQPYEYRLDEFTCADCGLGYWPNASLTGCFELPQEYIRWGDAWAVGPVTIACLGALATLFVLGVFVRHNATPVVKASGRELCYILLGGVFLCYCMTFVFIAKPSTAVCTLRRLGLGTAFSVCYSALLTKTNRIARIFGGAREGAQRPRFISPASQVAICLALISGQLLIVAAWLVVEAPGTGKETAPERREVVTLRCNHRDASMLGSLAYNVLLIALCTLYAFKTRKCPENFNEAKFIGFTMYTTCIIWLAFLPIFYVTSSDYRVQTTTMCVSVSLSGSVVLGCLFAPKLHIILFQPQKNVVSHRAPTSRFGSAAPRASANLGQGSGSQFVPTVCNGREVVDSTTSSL
Metabotropic glutamate receptor 4 (Rattus norvegicus), sequence (P31423 whole entry): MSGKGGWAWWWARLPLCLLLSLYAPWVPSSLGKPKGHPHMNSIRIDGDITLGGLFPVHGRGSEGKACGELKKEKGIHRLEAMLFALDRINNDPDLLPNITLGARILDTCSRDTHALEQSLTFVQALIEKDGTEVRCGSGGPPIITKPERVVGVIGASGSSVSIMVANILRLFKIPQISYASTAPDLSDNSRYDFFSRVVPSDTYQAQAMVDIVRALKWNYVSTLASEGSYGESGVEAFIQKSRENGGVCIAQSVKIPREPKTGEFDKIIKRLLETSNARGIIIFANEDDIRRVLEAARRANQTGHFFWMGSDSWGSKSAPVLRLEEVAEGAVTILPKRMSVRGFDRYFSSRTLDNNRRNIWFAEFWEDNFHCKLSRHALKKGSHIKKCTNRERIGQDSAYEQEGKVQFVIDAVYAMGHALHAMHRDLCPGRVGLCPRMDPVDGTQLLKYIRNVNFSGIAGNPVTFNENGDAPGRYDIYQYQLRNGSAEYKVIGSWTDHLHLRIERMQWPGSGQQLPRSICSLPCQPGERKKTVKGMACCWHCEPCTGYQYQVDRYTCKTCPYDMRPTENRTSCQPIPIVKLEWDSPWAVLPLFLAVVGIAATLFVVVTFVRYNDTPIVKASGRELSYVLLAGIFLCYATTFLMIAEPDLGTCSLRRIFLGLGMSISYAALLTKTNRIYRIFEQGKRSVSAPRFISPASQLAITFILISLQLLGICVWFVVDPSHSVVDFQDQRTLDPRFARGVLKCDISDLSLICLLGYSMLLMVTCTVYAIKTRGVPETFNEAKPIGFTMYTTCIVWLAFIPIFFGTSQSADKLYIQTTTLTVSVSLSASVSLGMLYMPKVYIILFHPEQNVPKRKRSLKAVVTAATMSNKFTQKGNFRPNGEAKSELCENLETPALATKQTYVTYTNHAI
Metabotropic glutamate receptor 8 (Rattus norvegicus), sequence (P70579 whole entry): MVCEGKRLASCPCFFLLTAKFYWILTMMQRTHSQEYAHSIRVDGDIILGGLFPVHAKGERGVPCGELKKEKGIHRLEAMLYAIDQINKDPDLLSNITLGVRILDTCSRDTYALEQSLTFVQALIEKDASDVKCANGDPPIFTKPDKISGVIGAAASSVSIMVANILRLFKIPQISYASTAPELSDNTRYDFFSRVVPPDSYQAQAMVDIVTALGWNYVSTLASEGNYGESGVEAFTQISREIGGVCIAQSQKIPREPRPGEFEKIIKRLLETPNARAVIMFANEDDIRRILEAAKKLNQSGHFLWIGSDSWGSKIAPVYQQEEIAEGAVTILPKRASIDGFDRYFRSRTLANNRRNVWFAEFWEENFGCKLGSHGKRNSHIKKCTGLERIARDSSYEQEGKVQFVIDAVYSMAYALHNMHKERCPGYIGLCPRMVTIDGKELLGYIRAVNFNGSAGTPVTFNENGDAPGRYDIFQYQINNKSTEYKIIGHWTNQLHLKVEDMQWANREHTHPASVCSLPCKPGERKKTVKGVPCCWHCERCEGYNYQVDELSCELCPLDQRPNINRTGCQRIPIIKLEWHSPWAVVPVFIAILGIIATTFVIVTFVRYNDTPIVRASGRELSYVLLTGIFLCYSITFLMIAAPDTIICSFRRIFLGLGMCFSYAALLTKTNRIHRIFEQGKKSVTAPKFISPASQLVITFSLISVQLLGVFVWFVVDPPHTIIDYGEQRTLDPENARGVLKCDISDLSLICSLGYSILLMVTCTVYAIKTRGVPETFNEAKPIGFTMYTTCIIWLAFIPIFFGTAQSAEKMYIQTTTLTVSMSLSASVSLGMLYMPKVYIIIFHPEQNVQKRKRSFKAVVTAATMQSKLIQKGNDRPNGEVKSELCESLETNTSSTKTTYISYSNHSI
Metabotropic glutamate receptor 5 (Rattus norvegicus), sequence (P31424 21-1203 limits assumed): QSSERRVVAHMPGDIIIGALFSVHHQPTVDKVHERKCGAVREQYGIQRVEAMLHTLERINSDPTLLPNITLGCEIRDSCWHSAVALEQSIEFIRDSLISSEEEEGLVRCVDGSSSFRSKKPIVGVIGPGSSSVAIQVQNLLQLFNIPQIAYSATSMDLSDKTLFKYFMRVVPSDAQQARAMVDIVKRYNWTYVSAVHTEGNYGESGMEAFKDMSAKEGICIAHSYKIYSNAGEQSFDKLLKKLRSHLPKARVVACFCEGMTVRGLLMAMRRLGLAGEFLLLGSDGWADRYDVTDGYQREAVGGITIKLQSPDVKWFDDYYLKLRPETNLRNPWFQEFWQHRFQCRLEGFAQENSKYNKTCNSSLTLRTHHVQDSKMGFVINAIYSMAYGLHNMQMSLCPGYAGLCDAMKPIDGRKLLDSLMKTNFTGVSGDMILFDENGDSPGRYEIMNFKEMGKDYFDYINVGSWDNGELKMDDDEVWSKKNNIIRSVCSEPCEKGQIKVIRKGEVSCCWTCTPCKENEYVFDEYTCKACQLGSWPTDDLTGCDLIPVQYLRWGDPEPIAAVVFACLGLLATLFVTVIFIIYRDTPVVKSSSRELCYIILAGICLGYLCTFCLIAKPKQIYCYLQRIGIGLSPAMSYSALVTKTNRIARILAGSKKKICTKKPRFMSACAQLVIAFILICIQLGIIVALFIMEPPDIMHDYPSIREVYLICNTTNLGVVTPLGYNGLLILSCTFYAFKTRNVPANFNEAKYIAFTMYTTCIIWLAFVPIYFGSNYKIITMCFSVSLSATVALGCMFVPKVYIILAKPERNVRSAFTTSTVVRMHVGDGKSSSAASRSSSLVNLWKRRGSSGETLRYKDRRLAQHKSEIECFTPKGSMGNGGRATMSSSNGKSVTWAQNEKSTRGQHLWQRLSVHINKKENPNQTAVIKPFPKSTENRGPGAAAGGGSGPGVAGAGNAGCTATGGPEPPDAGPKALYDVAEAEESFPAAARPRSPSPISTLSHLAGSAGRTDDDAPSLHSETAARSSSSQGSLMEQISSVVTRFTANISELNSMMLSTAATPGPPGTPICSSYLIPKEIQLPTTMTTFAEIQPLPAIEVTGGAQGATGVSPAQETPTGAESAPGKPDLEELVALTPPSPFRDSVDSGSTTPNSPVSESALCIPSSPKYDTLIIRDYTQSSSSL

pIC50 [1]: 6.61 | Fu (Plasma [2]): 0.003 | pIC50 [3]: 7.11 | Activity [4]: inactive | Activity [5]: inactive | Activity [6]: inactive | Activity [7]: inactive | Activity [8]: inactive | Activity [9]: Dose-dependent effect | Fu (Plasma [10]): 0.008 | inhibition [11]: Active | inhibition [12]: Active
SMILES: Cn1c(=O)c2ccc(-c3cncnc3)cc2n2nc(-c3ccccc3)cc12
